Measured values reported in ChEMBL document CHEMBL4393656, “Cationic biaryl 1,2,3-triazolyl peptidomimetic amphiphiles targeting Clostridioides (Clostridium) difficile: Synthesis, antibacterial evaluation and an in vivo C. difficile infection model” (Eur J Med Chem, 2019).

Tested on: Staphylococcus aureus
Test: Growth inhibition of Staphylococcus aureus ATCC 29213 incubated in MHB broth for 24 hrs
Assay type: organism-based
Settings: not given
With `CC(C)CCOc1ccccc1-c1ccccc1OCc1cn([C@H](CCCNC(=N)N)C(=O)NCCc2ccccc2)nn1.Cl` the MIC was 2 µg/mL. `CC(C)CCOc1ccccc1-c1ccccc1OCc1cn([C@H](CCCNC(=N)N)C(=O)NC2CC2)nn1.Cl` gave an MIC of 16 µg/mL. In the case of `CC(C)CCOc1ccc2ccccc2c1-c1c(OCc2cn([C@H](CCCNC(=N)N)C(=O)N[C@H](CCCCN)Cn3cc(CCc4ccccc4)nn3)nn2)ccc2ccccc12.Cl.Cl`, the MIC is reported as 4 µg/mL. `CC(C)CCOc1ccc2ccccc2c1-c1c(OCc2cn([C@H](CCCCN)C(=O)N[C@H](CCCNC(=N)N)C(=O)NCc3ccccc3)nn2)ccc2ccccc12.Cl.Cl` gave an MIC of 8 µg/mL. With `CC(C)CCOc1ccccc1-c1ccccc1OCc1cn([C@H](CCCCN)C(=O)N[C@H](CCCNC(=N)N)Cn2cc(CC3CCCCC3)nn2)nn1.Cl.Cl` the MIC was 4 µg/mL.

Tested on: Enterococcus faecalis
Test: Growth inhibition of Enterococcus faecalis ATCC 29212 incubated in MHB broth for 24 hrs
Assay type: organism-based
Settings: not given
Compound `CC(C)CCOc1ccccc1-c1ccccc1OCc1cn([C@H](CCCNC(=N)N)C(=O)NCCc2ccccc2)nn1.Cl` has an MIC of 4 µg/mL. For `CC(C)CCOc1ccccc1-c1ccccc1OCc1cn([C@H](CCCNC(=N)N)C(=O)NC2CC2)nn1.Cl`, the MIC was 32 µg/mL. `CC(C)CCOc1ccc2ccccc2c1-c1c(OCc2cn([C@H](CCCNC(=N)N)C(=O)N[C@H](CCCCN)Cn3cc(CCc4ccccc4)nn3)nn2)ccc2ccccc12.Cl.Cl` showed an MIC of 4 µg/mL. In the case of `CC(C)CCOc1ccc2ccccc2c1-c1c(OCc2cn([C@H](CCCCN)C(=O)N[C@H](CCCNC(=N)N)C(=O)NCc3ccccc3)nn2)ccc2ccccc12.Cl.Cl`, the MIC is reported as 8 µg/mL. `CC(C)CCOc1ccccc1-c1ccccc1OCc1cn([C@H](CCCCN)C(=O)N[C@H](CCCNC(=N)N)Cn2cc(CC3CCCCC3)nn2)nn1.Cl.Cl` showed an MIC of 4 µg/mL.

Tested on: Streptococcus pneumoniae
Test: Growth inhibition of Streptococcus pneumoniae ATCC 49619 incubated in MHB medium with lysed horse blood and 5% CO2 for 24 hrs
Assay type: organism-based
Settings: not given
`CC(C)CCOc1ccccc1-c1ccccc1OCc1cn([C@H](CCCNC(=N)N)C(=O)NCCc2ccccc2)nn1.Cl` showed an MIC of 4 µg/mL. For `CC(C)CCOc1ccccc1-c1ccccc1OCc1cn([C@H](CCCNC(=N)N)C(=O)NC2CC2)nn1.Cl`, the MIC was 8 µg/mL. Work on `CC(C)CCOc1ccc2ccccc2c1-c1c(OCc2cn([C@H](CCCNC(=N)N)C(=O)N[C@H](CCCCN)Cn3cc(CCc4ccccc4)nn3)nn2)ccc2ccccc12.Cl.Cl` yielded an MIC of 2 µg/mL. Work on `CC(C)CCOc1ccc2ccccc2c1-c1c(OCc2cn([C@H](CCCCN)C(=O)N[C@H](CCCNC(=N)N)C(=O)NCc3ccccc3)nn2)ccc2ccccc12.Cl.Cl` yielded an MIC of 8 µg/mL. `CC(C)CCOc1ccccc1-c1ccccc1OCc1cn([C@H](CCCCN)C(=O)N[C@H](CCCNC(=N)N)Cn2cc(CC3CCCCC3)nn2)nn1.Cl.Cl` showed an MIC of 8 µg/mL.

Tested on: Clostridioides difficile
Test: Antibacterial activity against Clostridium difficile ATCC 700057 incubated for 2 to 4 hrs in pre-reduced brucella broth supplemented with haemin/vitamin K and further incubation in anaerobic condition for 48 hrs
Assay type: functional
Settings: not given
For `CC(C)CCOc1ccccc1-c1ccccc1OCc1cn([C@H](CCCNC(=N)N)C(=O)NCCc2ccccc2)nn1.Cl`, the MIC was 8 µg/mL. Work on `CC(C)CCOc1ccccc1-c1ccccc1OCc1cn([C@H](CCCNC(=N)N)C(=O)NC2CC2)nn1.Cl` yielded an MIC of 64 µg/mL. Compound `CC(C)CCOc1ccc2ccccc2c1-c1c(OCc2cn([C@H](CCCNC(=N)N)C(=O)N[C@H](CCCCN)Cn3cc(CCc4ccccc4)nn3)nn2)ccc2ccccc12.Cl.Cl` has an MIC of 16 µg/mL. For `CC(C)CCOc1ccc2ccccc2c1-c1c(OCc2cn([C@H](CCCCN)C(=O)N[C@H](CCCNC(=N)N)C(=O)NCc3ccccc3)nn2)ccc2ccccc12.Cl.Cl`, the MIC was 16 µg/mL. `CC(C)CCOc1ccccc1-c1ccccc1OCc1cn([C@H](CCCCN)C(=O)N[C@H](CCCNC(=N)N)Cn2cc(CC3CCCCC3)nn2)nn1.Cl.Cl` gave an MIC of 16 µg/mL.

Tested on: Clostridioides difficile
Test: Antibacterial activity against Clostridium difficile NSW132 RT027 incubated for 2 to 4 hrs in pre-reduced brucella broth supplemented with haemin/vitamin K and further incubation in anaerobic condition for 48 hrs
Assay type: functional
Settings: not given
With `CC(C)CCOc1ccccc1-c1ccccc1OCc1cn([C@H](CCCNC(=N)N)C(=O)NCCc2ccccc2)nn1.Cl` the MIC was 32 µg/mL. `CC(C)CCOc1ccccc1-c1ccccc1OCc1cn([C@H](CCCNC(=N)N)C(=O)NC2CC2)nn1.Cl` gave an MIC of 128 µg/mL. With `CC(C)CCOc1ccc2ccccc2c1-c1c(OCc2cn([C@H](CCCNC(=N)N)C(=O)N[C@H](CCCCN)Cn3cc(CCc4ccccc4)nn3)nn2)ccc2ccccc12.Cl.Cl` the MIC was 16 µg/mL. Compound `CC(C)CCOc1ccc2ccccc2c1-c1c(OCc2cn([C@H](CCCCN)C(=O)N[C@H](CCCNC(=N)N)C(=O)NCc3ccccc3)nn2)ccc2ccccc12.Cl.Cl` has an MIC of 16 µg/mL. `CC(C)CCOc1ccccc1-c1ccccc1OCc1cn([C@H](CCCCN)C(=O)N[C@H](CCCNC(=N)N)Cn2cc(CC3CCCCC3)nn2)nn1.Cl.Cl` gave an MIC of 16 µg/mL.

Tested on: Escherichia coli
Test: Growth inhibition of Escherichia coli ATCC 25922 incubated for 18 hrs
Assay type: organism-based
Settings: not given
In the case of `CC(C)CCOc1ccccc1-c1ccccc1OCc1cn([C@H](CCCNC(=N)N)C(=O)NCCc2ccccc2)nn1.Cl`, the MIC is reported as > 32 µg/mL. For `CC(C)CCOc1ccccc1-c1ccccc1OCc1cn([C@H](CCCNC(=N)N)C(=O)NC2CC2)nn1.Cl`, the MIC was > 32 µg/mL. With `CC(C)CCOc1ccc2ccccc2c1-c1c(OCc2cn([C@H](CCCNC(=N)N)C(=O)N[C@H](CCCCN)Cn3cc(CCc4ccccc4)nn3)nn2)ccc2ccccc12.Cl.Cl` the MIC was > 32 µg/mL. With `CC(C)CCOc1ccc2ccccc2c1-c1c(OCc2cn([C@H](CCCCN)C(=O)N[C@H](CCCNC(=N)N)C(=O)NCc3ccccc3)nn2)ccc2ccccc12.Cl.Cl` the MIC was > 32 µg/mL. In the case of `CC(C)CCOc1ccccc1-c1ccccc1OCc1cn([C@H](CCCCN)C(=O)N[C@H](CCCNC(=N)N)Cn2cc(CC3CCCCC3)nn2)nn1.Cl.Cl`, the MIC is reported as 8 µg/mL.

Tested on: Klebsiella pneumoniae
Test: Growth inhibition of Klebsiella pneumoniae ATCC 700603 incubated for 18 hrs
Assay type: organism-based
Settings: not given
In the case of `CC(C)CCOc1ccccc1-c1ccccc1OCc1cn([C@H](CCCNC(=N)N)C(=O)NCCc2ccccc2)nn1.Cl`, the MIC is reported as > 32 µg/mL. For `CC(C)CCOc1ccccc1-c1ccccc1OCc1cn([C@H](CCCNC(=N)N)C(=O)NC2CC2)nn1.Cl`, the MIC was > 32 µg/mL. With `CC(C)CCOc1ccc2ccccc2c1-c1c(OCc2cn([C@H](CCCNC(=N)N)C(=O)N[C@H](CCCCN)Cn3cc(CCc4ccccc4)nn3)nn2)ccc2ccccc12.Cl.Cl` the MIC was > 32 µg/mL. Work on `CC(C)CCOc1ccc2ccccc2c1-c1c(OCc2cn([C@H](CCCCN)C(=O)N[C@H](CCCNC(=N)N)C(=O)NCc3ccccc3)nn2)ccc2ccccc12.Cl.Cl` yielded an MIC of 32 µg/mL. In the case of `CC(C)CCOc1ccccc1-c1ccccc1OCc1cn([C@H](CCCCN)C(=O)N[C@H](CCCNC(=N)N)Cn2cc(CC3CCCCC3)nn2)nn1.Cl.Cl`, the MIC is reported as 16 µg/mL.

Tested on: Acinetobacter baumannii
Test: Growth inhibition of Acinetobacter baumannii ATCC 19606 incubated for 18 hrs without shaking by absorbance based monochromator plate reader analysis
Assay type: organism-based, ATCC 19606 = CIP 70.34 = JCM 6841
Settings: in vitro
For `CC(C)CCOc1ccccc1-c1ccccc1OCc1cn([C@H](CCCNC(=N)N)C(=O)NCCc2ccccc2)nn1.Cl`, the MIC was 32 µg/mL. In the case of `CC(C)CCOc1ccccc1-c1ccccc1OCc1cn([C@H](CCCNC(=N)N)C(=O)NC2CC2)nn1.Cl`, the MIC is reported as > 32 µg/mL. Work on `CC(C)CCOc1ccc2ccccc2c1-c1c(OCc2cn([C@H](CCCNC(=N)N)C(=O)N[C@H](CCCCN)Cn3cc(CCc4ccccc4)nn3)nn2)ccc2ccccc12.Cl.Cl` yielded an MIC of 32 µg/mL. For `CC(C)CCOc1ccc2ccccc2c1-c1c(OCc2cn([C@H](CCCCN)C(=O)N[C@H](CCCNC(=N)N)C(=O)NCc3ccccc3)nn2)ccc2ccccc12.Cl.Cl`, the MIC was 32 µg/mL. For `CC(C)CCOc1ccccc1-c1ccccc1OCc1cn([C@H](CCCCN)C(=O)N[C@H](CCCNC(=N)N)Cn2cc(CC3CCCCC3)nn2)nn1.Cl.Cl`, the MIC was 8 µg/mL.

Tested on: Pseudomonas aeruginosa
Test: Growth inhibition of Pseudomonas aeruginosa ATCC 27853 incubated for 18 hrs
Assay type: organism-based
Settings: not given
With `CC(C)CCOc1ccccc1-c1ccccc1OCc1cn([C@H](CCCNC(=N)N)C(=O)NCCc2ccccc2)nn1.Cl` the MIC was > 32 µg/mL. For `CC(C)CCOc1ccccc1-c1ccccc1OCc1cn([C@H](CCCNC(=N)N)C(=O)NC2CC2)nn1.Cl`, the MIC was > 32 µg/mL. Work on `CC(C)CCOc1ccc2ccccc2c1-c1c(OCc2cn([C@H](CCCNC(=N)N)C(=O)N[C@H](CCCCN)Cn3cc(CCc4ccccc4)nn3)nn2)ccc2ccccc12.Cl.Cl` yielded an MIC of 32 µg/mL. With `CC(C)CCOc1ccc2ccccc2c1-c1c(OCc2cn([C@H](CCCCN)C(=O)N[C@H](CCCNC(=N)N)C(=O)NCc3ccccc3)nn2)ccc2ccccc12.Cl.Cl` the MIC was 32 µg/mL. `CC(C)CCOc1ccccc1-c1ccccc1OCc1cn([C@H](CCCCN)C(=O)N[C@H](CCCNC(=N)N)Cn2cc(CC3CCCCC3)nn2)nn1.Cl.Cl` showed an MIC of 32 µg/mL.

Tested on: Staphylococcus aureus
Test: Growth inhibition of methicillin-resistant Staphylococcus aureus ATCC 43300 incubated for 18 hrs
Assay type: organism-based
Settings: not given
In the case of `CC(C)CCOc1ccccc1-c1ccccc1OCc1cn([C@H](CCCNC(=N)N)C(=O)NCCc2ccccc2)nn1.Cl`, the MIC is reported as 8 µg/mL. For `CC(C)CCOc1ccc2ccccc2c1-c1c(OCc2cn([C@H](CCCNC(=N)N)C(=O)N[C@H](CCCCN)Cn3cc(CCc4ccccc4)nn3)nn2)ccc2ccccc12.Cl.Cl`, the MIC was 4 µg/mL. `CC(C)CCOc1ccc2ccccc2c1-c1c(OCc2cn([C@H](CCCCN)C(=O)N[C@H](CCCNC(=N)N)C(=O)NCc3ccccc3)nn2)ccc2ccccc12.Cl.Cl` gave an MIC of 4 µg/mL. `CC(C)CCOc1ccccc1-c1ccccc1OCc1cn([C@H](CCCCN)C(=O)N[C@H](CCCNC(=N)N)Cn2cc(CC3CCCCC3)nn2)nn1.Cl.Cl` gave an MIC of 2 µg/mL.

Tested on: not listed separately
Test: Cytotoxicity against HEK293 cells assessed as decrease in cell viability after 20 hrs by resazurin dye-based fluorescence assay
Settings: human
`CC(C)CCOc1ccccc1-c1ccccc1OCc1cn([C@H](CCCNC(=N)N)C(=O)NCCc2ccccc2)nn1.Cl` gave a CC50 at 20 h of 17.9 µg/mL. `CC(C)CCOc1ccccc1-c1ccccc1OCc1cn([C@H](CCCNC(=N)N)C(=O)NC2CC2)nn1.Cl` gave a CC50 at 20 h of 20 µg/mL. For `CC(C)CCOc1ccc2ccccc2c1-c1c(OCc2cn([C@H](CCCNC(=N)N)C(=O)N[C@H](CCCCN)Cn3cc(CCc4ccccc4)nn3)nn2)ccc2ccccc12.Cl.Cl`, the CC50 at 20 h was > 32 µg/mL. Work on `CC(C)CCOc1ccc2ccccc2c1-c1c(OCc2cn([C@H](CCCCN)C(=O)N[C@H](CCCNC(=N)N)C(=O)NCc3ccccc3)nn2)ccc2ccccc12.Cl.Cl` yielded a CC50 at 20 h of 17.4 µg/mL. For `CC(C)CCOc1ccccc1-c1ccccc1OCc1cn([C@H](CCCCN)C(=O)N[C@H](CCCNC(=N)N)Cn2cc(CC3CCCCC3)nn2)nn1.Cl.Cl`, the CC50 at 20 h was 19.1 µg/mL.
